# Data: US20130331427A1, “METHODS OF STIMULATING CELLULAR GROWTH, SYNAPTIC, REMODELING AND CONSOLIDATION OF LONG-TERM MEMORY” (Blanchette Rockefeller Neuroscience Institute, priority 2007, published 2013)
# Like-named read-outs stand apart in the source and are kept apart here.
# What was measured:
# PKC [1] = details: cited from earlier work
# PKC [2] = test: PKC affinity of bryostatin and bryologs; assay type: binding
# Text: Structurally, they are all similar.
# PKCε = target: T1, PKCε (Homo sapiens, UniProt Q02156); details: cited from earlier work
# T1 sequence (Q02156 1-737): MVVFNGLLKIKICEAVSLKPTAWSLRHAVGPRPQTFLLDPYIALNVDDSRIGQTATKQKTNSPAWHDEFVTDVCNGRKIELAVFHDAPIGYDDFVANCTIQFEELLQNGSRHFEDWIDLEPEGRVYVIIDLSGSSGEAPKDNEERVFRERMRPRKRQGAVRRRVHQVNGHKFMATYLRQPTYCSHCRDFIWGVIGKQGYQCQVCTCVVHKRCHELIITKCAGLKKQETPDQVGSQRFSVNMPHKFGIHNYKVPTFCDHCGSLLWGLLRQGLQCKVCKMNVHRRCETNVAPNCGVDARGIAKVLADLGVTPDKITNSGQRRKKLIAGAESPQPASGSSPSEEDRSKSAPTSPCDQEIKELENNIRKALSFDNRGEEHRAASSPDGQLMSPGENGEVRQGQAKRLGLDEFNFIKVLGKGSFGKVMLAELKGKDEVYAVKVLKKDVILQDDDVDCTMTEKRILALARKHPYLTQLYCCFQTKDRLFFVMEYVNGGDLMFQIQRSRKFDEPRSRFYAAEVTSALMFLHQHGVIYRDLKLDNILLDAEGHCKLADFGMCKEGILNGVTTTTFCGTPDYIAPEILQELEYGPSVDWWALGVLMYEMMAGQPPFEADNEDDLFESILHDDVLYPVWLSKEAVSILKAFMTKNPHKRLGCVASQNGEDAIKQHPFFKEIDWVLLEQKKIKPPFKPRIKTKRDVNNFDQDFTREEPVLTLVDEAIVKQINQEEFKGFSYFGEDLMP
# PKC [3] = details: K562 cells; cited from earlier work
# [4] = system: murine leukemias and solid tumors; details: cited from earlier work
# [5] = system: cyclin dependent kinase 2 (Cdk2); details: at 5 ng/ml; cited from earlier work
# PKC [6] = details: [3H]phorbol dibutyrate competition; read-out: Ki for binding; cited from earlier work
# [7] = system: squamous cell carcinoma and melanoma; details: used topically; cited from earlier work
# NCI 60 cell line screen = details: cited from earlier work
# Hermissenda Crassicornis = test: Pavlovian conditioning of Hermissenda, memory retention; assay type: in vivo
# Method: Specimens of Hermissenda Crassicornis were maintained in artificial sea water (ASW) at 15° for three days in perforated 50-ml conical centrifuge tubes before starting experiments. […] For selected experiments lactacysteine (10 μM) or anisomycin was added to the ASW.
# Pavlovian conditioning of Hermissenda involves repeated pairings of a neutral stimulus, light, with an unconditioned stimulus, orbital shaking. (See, Lederhendler et al. (24) and Epstein et al. (6)). A rotation/shaking stimulus excites the statocyst hair cells and thereby elicits an unconditioned response: a brisk contraction of the muscular undersurface called a foot, accompanied by adherence or “clinging” to the surface that supports the foot. Before conditioning, light elicits a weakly positive phototaxis accompanied by lengthening of the foot. After sufficient light-rotation pairings, light no longer elicits phototaxis, but instead elicits a new response (24): the “clinging” and foot shortening previously elicited only by the unconditional stimulus (FIG. 1). Thus, the meaning of the unconditioned stimulus, rotation or orbital shaking, has been transferred to the conditioned stimulus and is manifested by a light-elicited foot contraction—a negative change of foot length. This conditioned response to light can last for weeks, is not produced by randomized light and rotation, is stimulus-specific, and shares the other defining characteristics of mammalian Pavlovian Conditioning.
# Pavlovian conditioning of Hermissenda has well-defined training parameters that produce progressively longer-lasting retention of the learned conditioned response. Two training events (2 TE) of paired light and orbital shaking (see “Methods”), for example, induce a learned conditioned response (light-elicited foot contraction or shortening) that persists without drug treatment for approximately 7 minutes. Four to six training events (4-6 TE) induce a conditioned response that persists up to several hours, but disappears approximately by 1 day after training. Nine TE produces long-term associative memory lasting many days and often up to two weeks.
# All animals were tested with the CS alone at 4 h, then at 24-h intervals.
# CA1 neurons = test: acute hippocampal slices, number of dendritic spines (spinophilin); assay type: cell-based; details: PKC blocker
# Rat IGF-IR cells = test: overall protein synthesis, [35S]methionine incorporation; details: PKC inhibitor also present
# Method: [^35S]Methionine (9.1 μCi) was then added to the medium followed by analysis of radiolabel.
# calexcitin = calexcitin immunostaining in Hermissenda B-photoreceptors; assay type: in vivo
# Method: Following experimental treatments and testing, animals were rapidly decapitated, the central nervous systems (CNS) removed and then fixed in 4% para-formaldehyde in 20 mM Tris-buffered (pH 8) natural seawater (NSW; 0.2 μm micropore-filtered). The CNSs were then embedded in polyester wax (20), sectioned (6 μm) and immunostained using a biotinylated secondary antibody coupled to avidin-bound microperoxidase (ABC method, Vector), Aminoethylcarbazole (AEC) was used as the chromogen. The primary polyclonal antibody (designated 25U2) was raised in rabbits from the full length calexcitin protein extracted from squid optic lobes. Gray-scale intensity measures were done from digital photomicrographs on circumscribed cytoplasmic areas of the B-photoreceptors minus the same background area (non-staining neuropile).
# Micrographs (A, B) depict representative tissue sections from Hermissenda eyes that were immunolabeled with the calexcitin polyclonal antibody, 25U2. […] Differences in staining intensities were measured and recorded as gray-scale intensities (0-256; B-cell cytoplasm minus tissue background).
# PKC [8] = test: PKC activity (histone phosphorylation) in Hermissenda nervous systems; assay type: in vivo; details: anisomycin 1.0 ng/ml with each bryostatin 0.25 ng/ml exposure, three successive days
# Method: Cells were homogenized by sonication (5 sec, 25 W) in 100 μl of 100 mM Tris-HCL pH 7.4 buffer containing 1 mM EGTA, 1 mM PMSF, and 50 mM NaF. Homogenate was transferred to a polyallomer centrifuge tube and was centrifuged at 100,000×g for 10 min at 4°. The supernatant was removed and immediately frozen on dry ice. The particulate fraction was resuspended by sonication in 100 μl of the same buffer and stored at −80°. To measure PKC, 10 μl of cytosol or particulate fraction was incubated for 15 min at 37° in the presence of 10 μM histones, 4.89 mM CaCl2, 1.2 μg/μl phosphatidyl-L-serine, 0.18 μg/μl 1.2-dioctanoyl-sn-glycerol, 10 mM MgCl2, 20 mM HEPES (pH 7.4), 0-8 mM EDTA, 4 mM EGTA, 4% glycerol, 8 μg/ml aprotinin, 8 μg/ml leupeptin, and 2 mM benzamidine. 0.5 μCi [γ^32-P]ATP was added and ^32P-phosphoprotein formation was measured by adsorption onto phosphocellulose as described previously (25). This assay was used with slight adjustments for either Hermissenda nervous system homogenates or cultured mammalian neuron homogenates.
# Histone phosphorylation (See “Methods”) in isolated circumesophageal nervous systems was then measured in the cytosol fraction. […] (FIG. 12, 13).
# protein kinase C = details: (−)-enantiomer; cited from earlier work
# sAPP secretion = details: control and AD fibroblasts; cited from earlier work
# [9] = 2000 IU/day; cited from earlier work
# [10] = A-ring bryologs, read-out: affinity for PKC
molecule,measurement,setting,value
CCCCCCCC(=O)O[C@H]1/C(=C/C(=O)OC)C[C@H]2C[C@H](CO)OC(=O)C[C@H](O)C[C@@H]3CCC[C@H](C[C@@H]4CCO[C@H](/C=C/C(C)(C)[C@]1(O)O2)O4)O3 [Analog 1],"affinity for PKC, in words",PKC [1],highest affinity for PKC
same,Ki,PKC [1]; read-out: PKC Affin,0.25 nM
same,potency relative to bryostatin-1,PKC [2],about 100 times
CCCCCCCC(=O)O[C@H]1/C(=C/C(=O)OC)C[C@H]2C[C@H](CO)OC(=O)C[C@H](O)CCOCC[C@@H]3CCO[C@H](/C=C/C(C)(C)[C@]1(O)O2)O3 [Analog 2],"affinity for PKC, in words",PKC [1],maintains high affinity for PKC
same,Ki,PKC [1]; read-out: PKC Affin,6.5 nM
"CCCCCC1CC1CC1CC1CCCCCCCC(=O)O (stereo not drawn) [DCP-LA, 2-[(2-pentylcyclopropyl)methyl]cyclopropaneoctanoic acid]",concentration of maximal effect on PKCε,PKCε,100 nM
C=C(C)[C@]12C[C@@H](COC(=O)c3ccccc3)[C@@]34OC5(O[C@@H]1[C@@H]3C1O[C@]1(CO)[C@@H](O)[C@@]1(O)[C@H]4[C@@H](C(C)CCCCCC[C@@H]5O)C(C)[C@@H]1OC(=O)c1ccccc1)O2 (stereo partly drawn) [Gnidimacrin],concentration at which it acts as a PKC activator,PKC [3],0.3 nM
same,concentrations displaying potent antitumor activity,[4],0.1 to 1 nM
same,inhibition of Cdk2,[5],100%
"CC1=C[C@]23C(=O)[C@@H](C=C(COC(=O)c4ccccc4)[C@@H](O)[C@]2(O)[C@H]1OC(=O)c1ccccc1)[C@H]1[C@@H](C[C@H]3C)C1(C)C [Ingenol 3,20-dibenzoate]",Ki,PKC [6],240 nM
C/C=C(/C)C(=O)O[C@H]1C(C)=C[C@]23C(=O)[C@@H](C=C(CO)[C@@H](O)[C@]12O)[C@H]1[C@@H](C[C@H]3C)C1(C)C [Ingenol-3-angelate],antitumor activity,[7],possesses antitumor activity
CC1=CC[C@H](C)C(C)(C)[C@@H]1/C=C/C(C)=C/CC[C@@]1(CO)[C@H](CCCO)/C(=C(/C)C=O)CC[C@]1(C)O [Iripallidal],GI50 (concentration required to inhibit growth by 50%),NCI 60 cell line screen,from micromolar to nanomolar range
CC(=O)N[C@@H](CSC(=O)[C@]1([C@@H](O)C(C)C)NC(=O)[C@H](C)[C@@H]1O)C(=O)O [Lactacysteine],acquisition or retention of behavioral training,"Hermissenda Crassicornis; lactacysteine 10 μM alone for 4 h, 2-paired TEs 24 hrs later",no acquisition or retention of behavioral training
same,memory after single bryostatin exposure followed by 2 TE,Hermissenda Crassicornis; lactacysteine 10 μM together with bryostatin 0.25 ng/ml for 4 h,long-term memory lasting many days
Cn1cc(C2=C(c3cn(CCCSC(=N)N)c4ccccc34)C(=O)NC2=O)c2ccccc21 [RO-31-8220],effect on bryostatin-induced ELAV transport and spine increase,CA1 neurons,suppressed
CN(C)C[C@H]1CCn2c(c(C3=C(c4cn(C)c5ccccc45)C(=O)NC3=O)c3ccccc32)C1 [Ro-32],effect on bryostatin-induced increase of protein synthesis,Rat IGF-IR cells,partially blocked
same,effect on bryostatin-induced increase of protein synthesis,Rat IGF-IR cells; listed as Ro-32-0432,increasing significantly less
same,effect on long-term memory induction,Hermissenda Crassicornis; Ro-32 immediately after bryostatin plus training,did not prevent long-term memory induction
same,effect on 6 TE plus bryostatin,Hermissenda Crassicornis; applied pre-training during dark adaptation,blocked
same,effect on learning-specific calexcitin increases in the Type B cell,calexcitin; in vivo,prevented
COc1ccc(C[C@H]2NC[C@H](O)[C@H]2OC(C)=O)cc1 [anisomycin],effect on memory retention produced by 9 TE,"Hermissenda Crassicornis; 4 hour anisomycin treatment, no bryostatin",eliminated all memory retention
same,effect on memory from single 4 hour bryostatin exposure with 2 TE,Hermissenda Crassicornis; anisomycin 1.0 μg/ml,entirely eliminated
same,effect on long-term retention after three-day bryostatin treatments,"Hermissenda Crassicornis; anisomycin 1 μg/ml for four hours post-training, 2-TEs",did not prevent long-term retention
same,"effect on PKC activity, cytosolic and membrane fractions",PKC [8],markedly reduced
same,effect on calexcitin level,"calexcitin; anisomycin immediately after 2-paired TEs, 3 days of 4-hr bryostatin",did not reduce
CCCCCCCC(=O)OC1C(=CC(=O)OC)CC2CC(CO)OC(=O)CC(O)CCOC(C(C)(C)C)CC3CCOC(C=CC(C)(C)C1(O)O2)O3 (stereo not drawn) [bryolog 3],Ki,PKC [1]; [10],6.5 nM
CCCCCCCC(=O)OC1C(=CC(=O)OC)CC2CC(CO)OC(=O)CC(O)CCOC(c3ccccc3)CC3CCOC(C=CC(C)(C)C1(O)O2)O3 (stereo not drawn) [bryolog 4],Ki,PKC [1]; [10],2.3 nM
CCCCCCCC(=O)OC1C(=CC(=O)OC)CC2CC(CO)OC(=O)CC(O)CCOC(CCCc3ccc(Br)cc3)CC3CCOC(C=CC(C)(C)C1(O)O2)O3 (stereo not drawn) [bryolog 5],Ki,PKC [1]; [10],1.9 nM
COc1ccc2c(c[n+](C)c3c4cc5c(cc4ccc23)OCO5)c1OC [chelerythrine],effect on bryostatin-induced ELAV transport and spine increase,CA1 neurons,suppressed
"CCCCCCCCc1ccc2c3c(c[nH]c13)C[C@@H](CO)NC(=O)[C@H](C(C)C)N2C [octylindolactam V, Octylindolactam V]",EC50,protein kinase C,29 nM
CN[C@@H]1C[C@H]2O[C@@](C)([C@@H]1OC)n1c3ccccc3c3c4c(c5c6ccccc6n2c5c31)C(=O)NC4 [staurosporine],effect on benzolactam-induced sAPP secretion,sAPP secretion,eliminated the effects of benzolactam
vitamin E,cognitive abilities,[9],did not enhance cognitive abilities
same,mortality and morbidity,[9],reduced mortality and morbidity
